Test system: nerve, muscle, and adipose tissue
Assay: Kinetics of clearance, tissue fluorescence after IV injection
Type: in vivo, adult male CD-1 mice
Conditions: 3.33 mg/kg IV; 0.5, 1, 2 and 3 hours post injection
Protocol: (§1) All procedures were approved by the Institutional Animal Care and Use Committee (IACUC) at GE Global Research. Male CD-1 mice ranging in body weight from 25-30 g and SD rats (250-350 g) were purchased from Charles River Laboratories (Wilmington, Mass.) and housed at 22-23° C. on a 12-hour light/dark cycle. On the day of the experiment, rodents were anesthetized using 2-4% isofluorane and given a single tail vein injection of either imaging agent in formulation or formulation excipients alone. […]
(§2) In vivo imaging consisted of detailed fluorescence emission characterization and surgical imaging using a Zeiss Lumar™ imaging system (Carl Zeiss Inc. Thornwood, N.Y.) with coupled multispectral imaging camera (Nuance camera; CRI, Woburn, Mass.) or AxioCam™ (Carl Zeiss Inc. Thornwood, N.Y.). […] A variety of excitation filters were used to characterize the in vivo fluorescence of these agents. […] Fluorescence emission data was then recorded at wavelengths ranging from 420 to 720 nm at 10 nm steps using the attached CRI-Nuance™ camera (Cambridge Research and Instrumentation Inc., Wobur, Mass.) or using a 500 nm-long pass filter on the AxioCam. Fluorescence images were collected using exposure times of 5 seconds in both control and agent injected animals for normalization. […]

Row | SMILES | Maximum tissue-specific fluorescence intensity over time post injection (nerve, muscle, adipose tissue)
1 | CC1=CC(=C(C#N)C#N)C=C(/C=C/c2ccc(N)cc2)O1 [Formula II] | decreases with increasing time post injection

Test system: sciatic nerve tissue sections
Assay: Ex vivo binding of nerve labelling agents to sciatic nerve tissue sections (fluorescence microscopy)
Parameters: species or system male Sprague Dawley (SD) rats
Conditions: 10 μM or 20 μM agent, 1 hour incubation, compared to control tissue without agent
Protocol: For ex vivo histological evaluation, various nerves including sciatic, femoral and trigeminal were harvested from male Sprague Dawley (SD) rats. Tissue was fixed by perfusion and/or post-fixed with formalin. Nerves were then flash-frozen using methanol and dry ice in OCT media. In some cases, polyvinylidene fluoride membranes were used to help keep the nerves vertical in the OCT media. Thin sections (5-10 microns) were sliced on a Leica microtome and stored in a −80° C. freezer prior to staining with antibodies or fluorescent dyes.
Nerve sections were prepared as described above. At the time of staining the slides were removed from −80° C. and allowed to come to room temperature. The nerves were fixed in neutral buffered formalin (10%) for 5 min after which the slides were rinsed in 1×PBS (3×, 5 min/each). 10 μM, or 20 μM each Formula II, Formula III, Formula IV, Formula V, or Formula VI was added onto the tissue in a formulation containing 10% Cremophor EL and 60% rat serum made in 1×PBS. The slides were incubated for 1 hour in a dark, moist/humid chamber at room temperature after which they were washed 3 times for 5 min/each in 1×PBS, cover-slipped, and imaged using the appropriate filter cube on a Zeiss Axioimager at 200× magnification.

Row | Ex vivo binding to sciatic nerve tissue sections (fluorescence signal) | SMILES
2 | fluorescence signal is evident | COc1cc(/C=C/C2=CC(=C(C#N)C#N)C=C(C)O2)ccc1N [VI]
3 | fluorescence signal is evident | CC1=CC(=C(C#N)C#N)C=C(/C=C/c2ccc(NCCO)cc2)O1 [V]
4 | fluorescence signal is evident | COc1cc(/C=C/C2=CC(=C(C#N)C#N)C=C(C)O2)ccc1NCc1ccc(N)cc1 [IV]
5 | fluorescence signal is evident | CC1=CC(=C(C#N)C#N)C=C(/C=C/c2ccc(N(CCO)CCO)cc2)O1 [III]
6 | fluorescence signal is evident | CC1=CC(=C(C#N)C#N)C=C(/C=C/c2ccc(N)cc2)O1 [Formula II]

Test system: not listed separately
Assay: Measurement of optical properties of the agents (absorbance and fluorescence emission)
Type: physicochemical
Conditions: in DMSO; compounds lacking nerve binding
Protocol: The flurophores were dissolved in dimethylsulfoxide (DMSO) to make a 10 mM stock solution. An aliquot was taken to prepare a 10-100 μM flurophore solution in methanol, water, or DMSO. Optical measurements from the three solvents were taken. Absorbance spectra were measured using a PerkinElmer Lambda™ 20 UV/VIS spectrometer (PerkinElmer, Waltham, Mass.). Emission spectra were generated using a PTI steady state fluorimeter (Photon Technology International, Birmingham, N.H.). The stoke shift for nerve labeling agents on Table 3 are greater than 100 nm.

Row | Abs (maximal absorbance wavelength) [nm] | Em (maximal fluorescence emission wavelength) [nm] | SMILES
7 | 574 | 621 | CC1(C)OC(=C(C#N)C#N)C(C#N)=C1/C=C/c1ccc(N)cc1 [D]
8 | 494 | 578 | CC1(C)OC(=O)C(C#N)=C1/C=C/c1ccc(NCCO)cc1 [B]
9 | 480 | 562 | CC1(C)OC(=O)C(C#N)=C1/C=C/c1ccc(N)cc1 [A]
10 | 505 | 591 | CC1(C)OC(=O)C(C#N)=C1/C=C/c1ccc(N(CCO)CCO)cc1 [C]
11 | 596 | 656 | CC1(C)OC(=C(C#N)C#N)C(C#N)=C1/C=C/c1ccc(N(CCO)CCO)cc1 [F]
12 | 590 | 636 | CC1(C)OC(=C(C#N)C#N)C(C#N)=C1/C=C/c1ccc(NCCO)cc1 [E]

Same assay, conditions: in DMSO; nerve labeling agents

Row | SMILES | Absorbance Maximum [nm] | Emission Maximum [nm] | Stoke shift [nm]
13 | COc1cc(/C=C/C2=CC(=C(C#N)C#N)C=C(C)O2)ccc1NCc1ccc(N)cc1 [Formula IV] | 492 | 642 | 150
14 | CC1=CC(=C(C#N)C#N)C=C(/C=C/c2ccc(N(CCO)CCO)cc2)O1 [Formula III] | 491 | 623 | 132
15 | CC1=CC(=C(C#N)C#N)C=C(/C=C/c2ccc(N)cc2)O1 [Formula II] | 478 | 607 | 129

More lines, now with the values ahead:

Row | Absorbance Maximum [nm] | Emission Maximum [nm] | Stoke shift [nm] | SMILES
16 | 478 | 631 | 153 | COc1cc(/C=C/C2=CC(=C(C#N)C#N)C=C(C)O2)ccc1N [Formula VI]
17 | 484 | 618 | 134 | CC1=CC(=C(C#N)C#N)C=C(/C=C/c2ccc(NCCO)cc2)O1 [Formula V]

Test system: nerves
Assay: Pre-clinical fluorescence in vivo imaging of nerves in a large rodent model
Parameters: species or system Sprague Dawley (SD) rat
Conditions: 8.33 mg/kg IV, 0.5 hours post injection
Protocol: as §1, §2

Row | SMILES | Nerve visibility in fluorescence imaging
18 | CC1=CC(=C(C#N)C#N)C=C(/C=C/c2ccc(N)cc2)O1 [Formula II] | Visible nerves present

Same assay, conditions: 16.67 mg/kg IV, 0.5 hours post injection

Row | SMILES | Nerve visibility in fluorescence imaging
19 | CC1=CC(=C(C#N)C#N)C=C(/C=C/c2ccc(N)cc2)O1 [Formula II] | Visible nerves present

Source: US9040019B2, “Methods of detecting myelin basic protein” (General Electric Company, priority 2012, dated 2015)
